Laboratory results: patent US20240158446A1, “CYCLIC COMPOUND HAVING SELECTIVE INHIBITORY ACTION ON KRAS OVER HRAS AND NRAS” (CHUGAI SEIYAKU KABUSHIKI KAISHA, priority 2021, published 2024)
Like-named read-outs stand apart in the source and are kept apart here.

How the values were obtained:
[1] = target: GDP-bound HRAS wild-type protein (Homo sapiens, UniProt P01112); experiment: Binding to HRAS by surface plasmon resonance (SPR), Single Cycle Kinetics; settings: for HRAS/KRAS (ratio of KD value for HRAS to KD value for KRAS): GDP-bound HRAS wild-type protein vs GDP-bound KRAS wild-type protein; for HRAS/KRAS (ratio of KD value with respect to GDP-bound HRAS wild-type protein to KD value with respect to KRAS): SPR KD ratio HRAS/KRAS, class symbols
GDP-bound HRAS wild-type protein, sequence (P01112 whole entry): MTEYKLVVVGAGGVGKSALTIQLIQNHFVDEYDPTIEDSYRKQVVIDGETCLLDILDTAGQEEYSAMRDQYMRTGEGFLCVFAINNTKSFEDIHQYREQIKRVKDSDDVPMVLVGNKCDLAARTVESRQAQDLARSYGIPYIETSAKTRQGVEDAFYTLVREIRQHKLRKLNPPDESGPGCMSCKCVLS

[2] = target: GDP-bound NRAS wild-type protein (Homo sapiens, UniProt P01111); experiment: Binding to NRAS by surface plasmon resonance (SPR), Single Cycle Kinetics; settings: for NRAS/KRAS (ratio of KD value for NRAS to KD value for KRAS): GDP-bound NRAS wild-type protein vs GDP-bound KRAS wild-type protein; for NRAS/KRAS (ratio of KD value with respect to GDP-bound NRAS wild-type protein to KD value with respect to KRAS): SPR KD ratio NRAS/KRAS, class symbols
GDP-bound NRAS wild-type protein, sequence (P01111 whole entry): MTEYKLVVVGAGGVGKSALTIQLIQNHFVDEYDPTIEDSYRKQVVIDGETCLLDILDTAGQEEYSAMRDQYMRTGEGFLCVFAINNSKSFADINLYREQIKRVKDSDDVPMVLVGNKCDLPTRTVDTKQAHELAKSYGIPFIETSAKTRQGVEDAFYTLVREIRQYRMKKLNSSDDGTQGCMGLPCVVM

[3] = test system: human lung cancer strain NCI-H441;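 also: cell proliferation inhibition after four days measured by CellTiter-Glo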
[4] = target: GDP-bound KRAS wild-type protein (Homo sapiens, UniProt P01116); experiment: Binding to KRAS by surface plasmon resonance (SPR), Single Cycle Kinetics
GDP-bound KRAS wild-type protein, sequence (P01116 whole entry): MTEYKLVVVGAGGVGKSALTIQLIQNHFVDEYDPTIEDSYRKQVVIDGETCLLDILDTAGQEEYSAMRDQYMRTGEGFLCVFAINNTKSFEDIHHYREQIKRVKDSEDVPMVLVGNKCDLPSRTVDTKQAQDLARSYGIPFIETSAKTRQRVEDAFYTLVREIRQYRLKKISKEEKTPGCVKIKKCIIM

[5] = SPR, Single Cycle Kinetics, GDP-bound KRAS wild-type protein, read-out: KRAS KD
[6] = SPR Single Cycle Kinetics, GDP-bound KRAS wild-type protein, 1:1 binding model, read-out: KRAS KD
[7] = SPR, Single Cycle Kinetics, 1:1 binding model, GDP-bound KRAS wild-type protein, read-out: KRAS KD

CCOC[C@H]1C(=O)N[C@@H]([C@@H](C)CC)C(=O)N(C)CC(=O)N(C)[C@H]2C/C=C\CCN(C2=O)[C@@H](Cc2ccc(C)cc2)C(=O)N(C)CC(=O)N[C@@H](CCc2ccc(C(F)(F)F)c(Cl)c2)C(=O)N2C[C@@H](C)C[C@H]2C(=O)NC2(CC(C)(C)C2)C(=O)N(C)[C@@H](C2CCCC2)C(=O)N(C)[C@H](C(=O)N(C)C)CC(=O)N1C [PP2394]
HRAS/KRAS (ratio of KD value for HRAS to KD value for KRAS) ([1]; SPR): B (a compound having 3 or more and less than 10 is denoted as B) | NRAS/KRAS (ratio of KD value for NRAS to KD value for KRAS) ([2]; SPR): A (a compound having 10 or more and less than 20 is denoted as A) | IC50 [3]: 8.3 nM | Kd [4, 5]: 0.12 nM

CCC[C@H]1C(=O)N[C@@H](CC(C)C)C(=O)N(C2CC2)CC(=O)N(C)[C@H]2C/C=C\CCN(C2=O)[C@@H](Cc2ccc(C)cc2)C(=O)N(C)CC(=O)N[C@@H](CCc2ccc(C(F)(F)F)c(OC)c2)C(=O)N2C[C@H](OCC)C[C@H]2C(=O)NC2(CCC2)C(=O)N(C)[C@@H](C2CCCC2)C(=O)N(C)[C@H](C(=O)N(C)C)CC(=O)N1C [PP2534]
HRAS/KRAS (ratio of KD value with respect to GDP-bound HRAS wild-type protein to KD value with respect to KRAS) [1]: B (a compound having 3 or more and less than 10 is denoted as B) | NRAS/KRAS (ratio of KD value with respect to GDP-bound NRAS wild-type protein to KD value with respect to KRAS) [2]: A (a compound having 10 or more and less than 20 is denoted as A) | IC50 [3]: 195 nM | Kd [4, 6]: 4.1 nM

CCC[C@H]1C(=O)N[C@@H]([C@@H](C)CC)C(=O)N2CCC[C@H]2C(=O)N(C)[C@H]2C/C=C\CCN(C2=O)[C@@H](CC2CCCCC2)C(=O)N(C)CC(=O)N[C@@H](CCc2ccc(C(F)(F)F)c(OC)c2)C(=O)N2C[C@@H](C)C[C@H]2C(=O)N(C)C2(CCC2)C(=O)N(C)[C@@H](C2CCCC2)C(=O)N(C)[C@H](C(=O)N(C)C)CC(=O)N1C [PP2374]
HRAS/KRAS (ratio of KD value for HRAS to KD value for KRAS) ([1]; SPR): A (a compound having 10 or more and less than 20 is denoted as A) | NRAS/KRAS (ratio of KD value for NRAS to KD value for KRAS) ([2]; SPR): A (a compound having 10 or more and less than 20 is denoted as A) | IC50 [3]: 67.2 nM | Kd [4, 5]: 0.85 nM

CCO[C@@H]1C[C@H]2C(=O)NC3(CCC3)C(=O)N(C)[C@@H](C3CCCC3)C(=O)N(C)[C@H](C(=O)N3CCOCC3)CC(=O)N(C)[C@@H](CC3CCCC3)C(=O)N[C@@H]([C@@H](C)CC)C(=O)N(C)CC(=O)N(C)[C@H]3C/C=C\CCN(C3=O)[C@@H](Cc3ccc(C(F)(F)F)cc3)C(=O)N(C)CC(=O)N[C@@H](CCc3cc(F)c(C(F)(F)F)c(F)c3)C(=O)N2C1 [PP1393]
HRAS/KRAS (ratio of KD value for HRAS to KD value for KRAS) ([1]; SPR, KD ratio class): A (a compound having 10 or more and less than 20 is denoted as A) | NRAS/KRAS (ratio of KD value for NRAS to KD value for KRAS) ([2]; SPR, KD ratio class): A (a compound having 10 or more and less than 20 is denoted as A) | IC50 [3]: 18.2 nM | Kd [4, 7]: 0.19 nM

CCC[C@H]1C(=O)N[C@@H]([C@@H](C)CC)C(=O)N(C)CC(=O)N(C)[C@H]2C/C=C\CCN(C2=O)[C@@H](Cc2ccc(C)cc2)C(=O)N(C)CC(=O)N[C@@H](CCc2ccc(C(F)(F)F)c(OC)c2)C(=O)N2C[C@H](OCC)C[C@H]2C(=O)NC2(CC(C)(C)C2)C(=O)N(C)[C@@H](CC(C)(C)C)C(=O)N(C)[C@H](C(=O)N(C)C)CC(=O)N1C [PP2710]
HRAS/KRAS (ratio of KD value with respect to GDP-bound HRAS wild-type protein to KD value with respect to KRAS) [1]: B (a compound having 3 or more and less than 10 is denoted as B) | NRAS/KRAS (ratio of KD value with respect to GDP-bound NRAS wild-type protein to KD value with respect to KRAS) [2]: B (a compound having 3 or more and less than 10 is denoted as B) | IC50 [3]: 5.3 nM | Kd [4, 6]: 0.1 nM

CCC[C@H]1C(=O)N[C@@H]([C@@H](C)CC)C(=O)N(C)CC(=O)N(C)[C@H]2C/C=C\CCN(C2=O)[C@@H](Cc2ccc(C(F)(F)F)cc2)C(=O)N(C)CC(=O)N[C@@H](CCc2cc(F)c(C(F)(F)F)c(F)c2)C(=O)N2C[C@H](OCC)C[C@H]2C(=O)NC2(CCC2)C(=O)N(C)[C@@H](C2CCCC2)C(=O)N(C)[C@H](C(=O)N2CCOCC2)CC(=O)N1C [PP1288]
HRAS/KRAS (ratio of KD value for HRAS to KD value for KRAS) ([1]; SPR, KD ratio class): A (a compound having 10 or more and less than 20 is denoted as A) | NRAS/KRAS (ratio of KD value for NRAS to KD value for KRAS) ([2]; SPR, KD ratio class): AA (a compound having 20 or more is denoted as AA) | IC50 [3]: 22.2 nM | Kd [4, 7]: 0.18 nM

CCO[C@@H]1C[C@H]2C(=O)NC3(CC(F)(F)C3)C(=O)N(C)[C@@H](C3CCCC3)C(=O)N(C)[C@H](C(=O)N(C)C)CC(=O)N(C)[C@@H](CC)C(=O)N[C@@H]([C@@H](C)CC)C(=O)N(C)CC(=O)N(C)[C@H]3C/C=C\CCN(C3=O)[C@@H](Cc3ccc(C(F)(F)F)cc3)C(=O)N(C)CC(=O)N[C@@H](CCc3cc(F)c(C(F)(F)F)c(F)c3)C(=O)N2C1 [PP1274, (2S,8S,12R,14S,20S,23S,27S,30S,36S,38Z)-20-cyclopentyl-8-[2-[3,5-difluoro-4-(trifluoromethyl)phenyl]ethyl]-12-ethoxy-27-ethyl-1′,1′-difluoro-N,N,4,19,22,26,32,35-octamethyl-30-[(1S)-1-methylpropyl]-3,6,9,15,18,21,25,28,31,34,42-undecaoxo-2-[[4-(trifluoromethyl)phenyl]methyl]spiro[1,4,7,10,16,19,22,26,29,32,35-undecazatricyclo[34.5.1.0^10,14]dotetracont-38-ene-17,3′-cyclobutane]-23-carboxamide]
HRAS/KRAS (ratio of KD value for HRAS to KD value for KRAS) ([1]; SPR, KD ratio class): A (a compound having 10 or more and less than 20 is denoted as A) | NRAS/KRAS (ratio of KD value for NRAS to KD value for KRAS) ([2]; SPR, KD ratio class): A (a compound having 10 or more and less than 20 is denoted as A) | IC50 [3]: 7.5 nM | Kd [4, 7]: 0.032 nM

CCOC[C@H]1C(=O)N[C@@H]([C@@H](C)CC)C(=O)N(C2CC2)CC(=O)N(C)[C@H]2C/C=C\CCN(C2=O)[C@@H](Cc2ccc(C)cc2)C(=O)N(C)CC(=O)N[C@@H](CCc2cc(F)c(C(F)(F)F)c(F)c2)C(=O)N2C[C@H](OCC)C[C@H]2C(=O)NC2(CC(C)(C)C2)C(=O)N(C)[C@@H](CC(C)(C)C)C(=O)N(C)[C@H](C(=O)N(C)C)CC(=O)N1C [PP2720]
HRAS/KRAS (ratio of KD value with respect to GDP-bound HRAS wild-type protein to KD value with respect to KRAS) [1]: A (a compound having 10 or more and less than 20 is denoted as A) | NRAS/KRAS (ratio of KD value with respect to GDP-bound NRAS wild-type protein to KD value with respect to KRAS) [2]: A (a compound having 10 or more and less than 20 is denoted as A) | IC50 [3]: 7.7 nM | Kd [4, 6]: 0.35 nM

CCO[C@@H]1C[C@H]2C(=O)NC3(CCCCC3)C(=O)N(C)[C@@H](C3CCCC3)C(=O)N(C)[C@H](C(=O)N(C)C)CC(=O)N(C)[C@@H](CC)C(=O)N[C@@H]([C@@H](C)CC)C(=O)N(C)CC(=O)N(C)[C@H]3C/C=C\CCN(C3=O)[C@@H](Cc3ccc(C(F)(F)F)cc3)C(=O)N(C)CC(=O)N[C@@H](CCc3cc(F)c(C(F)(F)F)c(F)c3)C(=O)N2C1 [PP1277]
HRAS/KRAS (ratio of KD value for HRAS to KD value for KRAS) ([1]; SPR, KD ratio class): A (a compound having 10 or more and less than 20 is denoted as A) | NRAS/KRAS (ratio of KD value for NRAS to KD value for KRAS) ([2]; SPR, KD ratio class): A (a compound having 10 or more and less than 20 is denoted as A) | IC50 [3]: 79.8 nM | Kd [4, 7]: 0.25 nM

CCC[C@H]1C(=O)N[C@@H]([C@@H](C)CC)C(=O)N2CCC[C@H]2C(=O)N(C)[C@H]2C/C=C\CCN(C2=O)[C@@H](Cc2ccc(C(F)(F)F)cc2)C(=O)N(C)CC(=O)N[C@@H](CCc2ccc(C(F)(F)F)c(OC)c2)C(=O)N2C[C@H](OCC)C[C@H]2C(=O)N(C)C2(CCC2)C(=O)N(C)[C@@H](C2CCCC2)C(=O)N(C)[C@H](C(=O)N2CCCCC2)CC(=O)N1C [PP3099]
HRAS/KRAS (ratio of KD value for HRAS to KD value for KRAS) ([1]; SPR): A (a compound having 10 or more and less than 20 is denoted as A) | ratio of the KD value with respect to GDP-bound HRAS wild-type protein to the KD value with respect to KRAS ([1]; SPR, KD(HRAS)/KD(KRAS)): A (a compound having 10 or more and less than 20 is denoted as A) | NRAS/KRAS (ratio of KD value for NRAS to KD value for KRAS) ([2]; SPR): A (a compound having 10 or more and less than 20 is denoted as A) | ratio of the KD value with respect to GDP-bound NRAS wild-type protein to the KD value with respect to KRAS ([2]; SPR, KD(NRAS)/KD(KRAS)): A (a compound having 10 or more and less than 20 is denoted as A) | IC50 ([3]; read-out: NCI-H441 cell proliferation inhibitory activity, 50% proliferation inhibitory concentration (IC50 value), NCI-H441, four days, CellTiter-Glo): 13.3 nM | Kd ([4]; SPR, Single Cycle Kinetics, 1:1 binding model, read-out: KD value with respect to GDP-bound KRAS wild-type protein): 0.61 nM | Kd [4, 5]: 0.61 nM

CCO[C@@H]1C[C@H]2C(=O)NC3(CCC3)C(=O)N(C)[C@@H](C3CCCC3)C(=O)N(C)[C@H](C(=O)N3CCOCC3)CC(=O)N(C)[C@@H](Cc3ccc(C#N)cc3)C(=O)N[C@@H]([C@@H](C)CC)C(=O)N(C)CC(=O)N(C)[C@H]3CCCCCN(C3=O)[C@@H](Cc3ccc(F)cc3)C(=O)N(C)CC(=O)N[C@@H](CCc3cc(F)c(C(F)(F)F)c(F)c3)C(=O)N2C1 [PP1187]
HRAS/KRAS (ratio of KD value for HRAS to KD value for KRAS) ([1]; SPR): B (a compound having 3 or more and less than 10 is denoted as B) | NRAS/KRAS (ratio of KD value for NRAS to KD value for KRAS) ([2]; SPR): B (a compound having 3 or more and less than 10 is denoted as B) | IC50 [3]: 52.3 nM | Kd [4, 5]: 0.12 nM
